Results reported in patent US8012980B2, “Isoquinolinone derivatives” (AstraZeneca AB, priority 2008, dated 2011).

What was measured:
[1] = target: T1, human active recombinant p38 (p38α) (Homo sapiens, UniProt Q16539); assay: p38 Alpha Enzyme Assay (AlphaScreen, biotinylated-ATF2 substrate); format: biochemical; conditions: means of replicate determinations, pre-incubated for 4 hours at 37° C., SD of assay between 0.2 and 0.3 log units; for IC50: read-out: p38α inhibition Mean pIC50 (converted)
T1 construct: 6His
T1 sequence (Q16539 whole entry): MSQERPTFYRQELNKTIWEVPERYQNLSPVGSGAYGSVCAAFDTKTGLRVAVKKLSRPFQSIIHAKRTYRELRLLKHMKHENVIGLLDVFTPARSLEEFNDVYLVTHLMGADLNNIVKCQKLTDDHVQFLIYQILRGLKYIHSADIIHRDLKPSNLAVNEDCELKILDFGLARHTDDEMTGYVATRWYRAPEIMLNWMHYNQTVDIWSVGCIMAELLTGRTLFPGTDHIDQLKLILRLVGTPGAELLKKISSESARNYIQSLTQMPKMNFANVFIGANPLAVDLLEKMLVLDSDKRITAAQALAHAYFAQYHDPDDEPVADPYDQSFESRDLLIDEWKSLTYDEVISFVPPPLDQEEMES

[2] = system: LPS-induced BAL neutrophilia; assay: LPS Challenge Assay (neutrophil migration into the airway after aerosol LPS challenge); format: in vivo, Han Wistar (HW) rat; conditions: Han Wistar rat; nose-only inhalation; nebuliser concentration of <1 mg/mL; dosed 0.5 hour before the LPS challenge
Method: The following is a description of an assay that may be used to evaluate a compounds activity on neutrophil migration into the airway after aerosol challenge with lipopolysaccharide (LPS) in the Han Wistar (HW) rat.
LPS challenge in HW rats caused an influx of inflammatory cells into the lungs. Rats were challenged either with an aerosol of 0.9% w/v saline or 0.5 mg/mL LPS in 0.9% saline for 30 min. Rats were dosed with vehicle or test compound by nose-only inhalation administration at various time points before challenge depending upon the experimental protocol. Test compound groups could either be the same compound at different doses or single doses of different compounds. […]
The rats were euthanized with 200 mg pentobarbitone sodium at various time points after challenge depending upon the nature of the study, but typically 4 hr after LPS challenge. […] An aliquot of BAL fluid was removed and counted on the Sysmex XT2000Vet automated cell counter (Sysmex UK, Milton Keynes). […] Cells were classified as eosinophils, neutrophils or mononuclear cells (mononuclear cells included monocytes, macrophages and lymphocytes) and were expressed as a percentage of the total cell count.
Compounds were scored as active if a statistically significant (i.e. p<0.05) inhibition of the LPS-induced BAL neutrophilia response was observed.

[3] = system: mouse lymphoma L5178Y cells; assay: In Vitro Micronucleus Assay (genotoxicity); format: cell-based; conditions: 3 hours exposure in the presence or absence of S9 mix, up to 1 mmol/L or solubility limit
Excerpt: In Vitro Micronucleus Assay
The following is a description of an assay that may be used to assess the genotoxicity of a compound using mouse lymphoma […] cells.
The in vitro micronucleus assay (IVM) detects chemicals that induce chromosomal damage by measuring the formation of small intra cell membrane-bound DNA fragments. At AstraZeneca, L5178Y cells are used as these are the cells of choice for follow on regulatory mammalian cell in vitro genotoxicity screening. The test system is simple to perform and produces rapid results. The IVM is suitable as a preliminary genetic toxicity-screening assay prior to compound selection.
A wide range of test chemical concentrations, up to 1 mmol/L or the chemicals solubility limit, is tested. […] Where possible, 20 hours after treatment exposure, at least three concentrations giving acceptable levels of toxicity (greater than 10% survival as measured by two day relative suspension growth) are selected for analysis of micronucleated cells. […] Where possible, a total of at least 1000 cells per culture are scored.
For any concentration, an increase in the number of micronucleated cells is considered to be significant if the increase is at least 2-fold the concurrent solvent control level, and the number of micronucleated cells is greater than 8 per thousand cells scored.

| Molecule | IC50 [1] | activity in LPS Challenge Assay (active = statistically significant, p<0.05, inhibition of the LPS-induced BAL neutrophilia response) [2] | activity in micronucleus assay (significant = at least 2-fold solvent control and more than 8 micronucleated cells per thousand) [3] | p38α inhibition Mean pIC50 [1] |
| --- | --- | --- | --- | --- |
| Cc1c(F)cc(C(=O)NC2CC2)cc1-c1ccc2c(=O)n(CC(C)(C)CO)cc(CN3CCNC[C@H]3C)c2c1 [Example 26, N-Cyclopropyl-3-fluoro-5-[2-(3-hydroxy-2,2-dimethylpropyl)-4-{[(2R)-2-methylpiperazin-1-yl]methyl}-1-oxo-1,2-dihydroisoquinolin-6-yl]-4-methylbenzamide] | 0.251 nM | active | inactive |  |
| Cc1c(F)cc(C(=O)NC2CC2)cc1-c1ccc2c(=O)n(CC(C)(C)CO)cc(S[C@H]3CCN[C@H](CO)C3)c2c1 [Example 67, N-Cyclopropyl-3-fluoro-5-[2-(3-hydroxy-2,2-dimethylpropyl)-4-{[(2S,4S)-2-(hydroxymethyl)piperidin-4-yl]sulfanyl}-1-oxo-1,2-dihydroisoquinolin-6-yl]-4-methylbenzamide] | 0.251 nM |  |  |  |
| N-Cyclopropyl-3-fluoro-5-(2-[2-(hydroxymethyl)-2-methylbutyl]-4-{[(3S)-3-methylpiperazin-1-yl]methyl}-1-oxo-1,2-dihydroisoquinolin-6-yl)-4-methylbenzamide [Example 37] |  |  |  | 9.5 |
